Several values for one entry are separate records, joined by “and”; a condition that tells them apart may be missing. Equal entries are not always repeated. Structures can show the parent of a compound that is named as a salt. Where two headings read alike, the source gives them in different places.
Key:
Assay in all cases: MTT assay for 7-day toxicity assay
Assay type in all cases: cell-based
[1] = system: Glioma SNB19V (MGMT−); conditions: for GI50: Glioma SNB19V (MGMT−)
Method: (§1) The cell culture techniques were carried out in a Class II microbiological safety cabinet which was swabbed with 70% IMS in distilled water before each use. […] MRC-5 cells were cultured in EMEM. Cells were grown in a humidified incubator containing 5% CO2 at 37° C. Cells were sub-cultured when growth exceeded approximately 80% confluence, normally twice weekly. The medium was aspirated from the flask and approximately 0.8 mL trypsin-EDTA 1× solution added. The cells were re-incubated at 37° C. until they visibly detached from the flask. The cell suspension was then re-suspended in 5 mL medium and 0.5-1 mL of the cell suspension was transferred to a new flask (25 cm^2) with 7 mL culture medium. The cells were further incubated at 37° C. incubator. Cells were disposed after passage nearly 30 times in order to minimize phenotypic drift. New batches of cells were taken from liquid nitrogen storage by thawing rapidly (37° C. water bath) and re-suspension in a 25 cm^2 flask with 10 mL of culture medium. Two passages were allowed to resume normal growth. For long-term maintenance, viable cells at 60-80% confluence were detached by minimum amount of trypsin/EDTA and re-suspended in sterile filtered freezing medium (95% FBS, 5% DMSO), transferred to sterile cryogenic vials, and frozen overnight at −20° C. followed by −80° C. for 1-2 days and stored in liquid nitrogen for long term storage.
(§2) Most test compounds, including temozolomide, were prepared as stock solution (100 mM) in DMSO and stored at −20° C. for not more than 6 months.
(§3) Glioma cell lines, SNB19 and U373, both MGMT transfected (i.e., SNB19M and U373M) and vector controls (i.e., SNB19V and U373V); colorectal carcinoma cell lines, HCT116, HT29, and DLD1; melanoma cell line, SKMEL-28; breast cell line, MCF-7; and normal human fetal lung fibroblast cell line, MRC-5; were harvested at 60-80% confluence—during the logarithmic phase of growth.
(§4) Following harvesting, cells in suspension were gently syringed through a 23 gauge needle to obtain a near-single cell suspension. The desired cell seeding densities were used and added into 96-well plates in 180 μL culture medium if only one test compound was to be added, or 160 μL if two test compounds were to be added in combination, which were allowed to attach at 37° C. (5% CO2) overnight. For the 7 day assay, the cell seeding density for different cell lines was as follows: SNB19V, SNB19M: 650 cells/well; U373V, U373M: 650 cells/well; SNB19VR, U373VR: 650 cells/well; HCT116, DLD-1, SKMEL-28, MRC-5, MCF-7: 400 cells/well.
(§5) The two peripheral lanes were used as blank wells (cell free) and filled with 200 μL of medium in order to minimise medium evaporation from the plate. A separate time zero (T0) plate was set up alongside other plates. Serial dilutions in tissue culture medium of a 100 mM stock of test compound in DMSO were prepared immediately before each assay to ten times the final concentrations required, and then 20 μL was added to each well (200 μL total media per well) to achieve final concentrations of 0.5 μM, 1 μM, 5 μM, 10 μM, 50 μM, 100 μM, 500 μM, and 1000 μM. A minimum of four wells received the same test compound concentration. To control wells, including those in the T0 plate, 20 μL of medium was added. […] A separate plate treated in the same way, but free of test compound, was used as a measure of cell viability at the time of drug addition (day 0).
(§6) After incubation at 37° C., 5% CO2 for 7 days (or immediately for the day 0 plate), cell viability was quantified using the MTT assay. 50 μL of sterile filtered MIT (3-(4,5-dimethylthiazol-2-yl)-2,5-diphenyltetrazolium bromide) (2 mg/mL in phosphate buffered saline) were added to each well (final concentration 0.4 mg/mL) and the plates were re-incubated for 4 hours to allow metabolic conversion of MTT by dehydrogenases in viable cells to insoluble formazan crystals.
(§7) The intensity of absorbance is directly proportional to cell viability.

[2] = system: Glioma SNB19M (MGMT+); conditions: for GI50: Glioma SNB19M (MGMT+)
Method: as §1, §2, §3, §4, §5, §6, §7

[3] = system: Glioma U373M (MGMT+); conditions: Glioma U373M (MGMT+), 7-day MTT, single determinations, read-out: GI50
Method: as §1, §2, §3, §4, §5, §6, §7

[4] = system: Glioma U373V (MGMT low); conditions: Glioma U373V (MGMT low)
Method: as §1, §2, §3, §4, §5, §6, §7

[5] = 168 h, 7-day MTT, single determinations, read-out: GI50
[6] = 7-day MTT, single determinations, read-out: GI50

SMILES: CC(c1ccc(Br)cc1)n1nnc2c(C(N)=O)ncn2c1=O (racemic) [BB-005, (+/−) 3-(-1-(4-Bromophenyl)ethyl)-8-carbamoylimidazotetrazin-4-one]
- GI50 [1, 5]: 42 µM
- GI50 [1, 6]: 80.2 µM and 81 µM and 70.2 µM

SMILES: COc1ccc(Cn2nnc3c(C(N)=O)ncn3c2=O)cc1OC [AA-005, 3-(3,4-dimethoxybenzyl)-4-oxo-3,4-dihydroimidazo[5,1-d][1,2,3,5]tetrazine-8-carboxamide]
- GI50 [2, 5]: 282 µM
- GI50 [2, 6]: 232 µM
- GI50 [1, 5]: 218 µM
- GI50 [1, 6]: 114 µM
- GI50 ([3]; 168 h): 301 µM
- GI50 [3]: 224 µM
- GI50 [4, 5]: 197 µM
- GI50 [4, 6]: 259 µM

SMILES: COc1ccc([C@@H](C)n2nnc3c(C(N)=O)ncn3c2=O)cc1 [BB-003, (R)-3-(−1-(4-Methoxyphenyl)ethyl)-8-carbamoylimidazotetrazin-4-one]
- GI50 [2, 5]: 72.3 µM
- GI50 [2, 6]: 97.1 µM
- GI50 [1, 5]: 55.8 µM
- GI50 [1, 6]: 93.7 µM
- GI50 [4, 5]: 71 µM
- GI50 [4, 6]: 138 µM

SMILES: NC(=O)c1ncn2c(=O)n(Cc3ccsc3)nnc12 [CC-001, 4-oxo-3-(thiophen-3-ylmethyl)-3,4-dihydroimidazo[5,1-d][1,2,3,5]tetrazine-8-carboxamide]
- GI50 [2, 5]: 208 µM
- GI50 [2, 6]: 135 µM
- GI50 [1, 5]: 79.6 µM
- GI50 [1, 6]: 117 µM
- GI50 ([3]; 168 h): 198 µM
- GI50 [3]: 232 µM
- GI50 [4, 5]: 206 µM
- GI50 [4, 6]: 160 µM

SMILES: NC(=O)c1ncn2c(=O)n(Cc3cccs3)nnc12 [CC-002, 4-oxo-3-(thiophen-2-ylmethyl)-3,4-dihydroimidazo[5,1-d][1,2,3,5]tetrazine-8-carboxamide]
- GI50 [2, 5]: 63.6 µM
- GI50 [2, 6]: 54.7 µM
- GI50 [1, 5]: 76.7 µM
- GI50 [1, 6]: 52 µM
- GI50 ([3]; 168 h): 96.8 µM
- GI50 [3]: 52.2 µM
- GI50 [4, 5]: 149 µM
- GI50 [4, 6]: 81.4 µM

SMILES: Cc1noc(Cn2nnc3c(C(N)=O)ncn3c2=O)n1 [CC-003, 3-(3-Methyl-[1,2,4]oxadiazol-5-ylmethyl)-4-oxo-3,4-dihydro-imidazo[5,1-d][1,2,3,5]tetrazine-8-carboxylic acid amide]
- GI50 [2, 5]: 198 µM
- GI50 [2, 6]: 208 µM
- GI50 [1, 5]: 208 µM
- GI50 [1, 6]: 176 µM
- GI50 ([3]; 168 h): 196 µM
- GI50 [3]: 391 µM

SMILES: Cc1cc(Cn2nnc3c(C(N)=O)ncn3c2=O)on1 [CC-004, 3-(3-Methyl-isoxazol-5-ylmethyl)-4-oxo-3,4-dihydro-imidazo[5,1-d][1,2,3,5]tetrazine-8-carboxylic acid amide]
- GI50 [1, 5]: 38 µM
- GI50 [1, 6]: 54.9 µM
- GI50 ([3]; 168 h): 29.3 µM

SMILES: NC(=O)c1ncn2c(=O)n(Cc3c[nH]nn3)nnc12 [CC-005, 4-Oxo-3-(1H-[1,2,3]triazol-4-ylmethyl)-3,4-dihydro-imidazo[5,1-d][1,2,3,5]tetrazine-8-carboxylic acid amide]
- GI50 [2, 5]: 257 µM
- GI50 [2, 6]: 409 µM
- GI50 [1, 5]: 357 µM
- GI50 [1, 6]: 239 µM
- GI50 ([3]; 168 h): 334 µM
- GI50 [3]: 330 µM
- GI50 [4, 5]: 261 µM
- GI50 [4, 6]: 400 µM

SMILES: CC#CCn1nnc2c(C(N)=O)ncn2c1=O [EE-002, 3-But-2-ynyl-4-oxo-3,4-dihydro-imidazo[5,1-d][1,2,3,5]tetrazine-8-carboxylic acid amide]
- GI50 [2, 5]: 38.1 µM
- GI50 [2, 6]: 37.1 µM
- GI50 [1, 5]: 33.5 µM
- GI50 [1, 6]: 45.8 µM
- GI50 ([3]; 168 h): 41.1 µM
- GI50 [3]: 25.1 µM
- GI50 [4, 5]: 42.1 µM
- GI50 [4, 6]: 31.1 µM

SMILES: C[Si](C)(C)C#CCn1nnc2c(C(N)=O)ncn2c1=O [EE-003, 4-Oxo-3-(3-trimethylsilanyl-prop-2-ynyl)-3,4-dihydro-imidazo[5,1-d][1,2,3,5]tetrazine-8-carboxylic acid amide]
- GI50 [2, 5]: 42.9 µM
- GI50 [2, 6]: 35.2 µM
- GI50 [1, 5]: 41.7 µM
- GI50 [1, 6]: 36.6 µM
- GI50 ([3]; 168 h): 31.5 µM
- GI50 [3]: 30 µM
- GI50 [4, 5]: 26.8 µM
- GI50 [4, 6]: 33.6 µM

SMILES: NC(=O)c1ncn2c(=O)n(C3CCCC3)nnc12 [FF-001, 3-Cyclopentyl-8-carbamoylimidazotetrazin-4-one]
- GI50 [2, 5]: 292 µM
- GI50 [2, 6]: 238 µM
- GI50 [1, 5]: 318 µM
- GI50 [1, 6]: 266 µM
- GI50 ([3]; 168 h): 228 µM
- GI50 [3]: 204 µM
- GI50 [4, 5]: 169 µM
- GI50 [4, 6]: 163 µM

SMILES: NC(=O)c1ncn2c(=O)n(C3CC3)nnc12 [FF-002, 3-Cyclopropyl-8-carbamoylimidazotetrazin-4-one]
- GI50 [2, 5]: 593 µM
- GI50 [2, 6]: 637 µM and 418 µM
- GI50 [1, 5]: 516 µM
- GI50 [1, 6]: 376 µM and 392 µM
- GI50 ([3]; 168 h): 369 µM
- GI50 [3]: 346 µM and 367 µM
- GI50 [4, 5]: 293 µM
- GI50 [4, 6]: 386 µM and 241 µM

SMILES: NC(=O)c1ncn2c(=O)n(CC3CCCCC3)nnc12 [GG-001, 3-Cyclohexylmethyl-8-carbamoylimidazotetrazin-4-one]
- GI50 [2, 5]: 831 µM
- GI50 [2, 6]: 445 µM
- GI50 [4, 5]: 717 µM
- GI50 [4, 6]: > 1000 µM

SMILES: NC(=O)c1ncn2c(=O)n(CC3CC3)nnc12 [GG-003, 3-Cyclopropylmethyl-8-carbamoylimidazotetrazin-4-one]
- GI50 [2, 5]: 152 µM
- GI50 [2, 6]: 293 µM
- GI50 [4, 5]: 386 µM

SMILES: NC(=O)c1ncn2c(=O)n(C3CCNCC3)nnc12 [HH-001, 3-Piperidin-4-yl-8-carbamoylimidazotetrazin-4-one hydrobromide]
- GI50 [1, 5]: 167 µM
- GI50 ([1]; 7-day MTT, single determinations, hydrobromide, read-out: GI50): 190 µM
- GI50 ([3]; 168 h): 72 µM
- GI50 ([3]; hydrobromide): 115 µM

SMILES: NC(=O)CCn1nnc2c(C(N)=O)ncn2c1=O [JJ-004, 3-(8-Carbamoyl-oxoimidazo[5,1-d][1,2,3,5]tetrazin-3(4H)-yl)propanamide]
- GI50 [2, 5]: 417 µM
- GI50 [2, 6]: 281 µM
- GI50 [1, 5]: 348 µM
- GI50 [1, 6]: 294 µM

SMILES: CC(C)(C)C(=O)OCn1nnc2c(C(N)=O)ncn2c1=O [LL-004, 2,2-Dimethyl-propionic acid 8-carbamoyl-4-oxo-imidazo[5,1-d][1,2,3,5]tetrazin-3-ylmethyl ester]
- GI50 [1, 5]: 47.2 µM
- GI50 [1, 6]: 35.9 µM and 51.9 µM

SMILES: CC(C)(C)OC(=O)Cn1nnc2c(C(N)=O)ncn2c1=O [LL-006, (8-Carbamoyl-4-oxo-imidazo[5,1-d][1,2,3,5]tetrazin-3-yl)-acetic acid tert-butyl ester]
- GI50 ([2]; 168 h, 7-day MTT, single determinations): 64 µM
- GI50 ([2]; 7-day MTT, single determinations): 60.5 µM and 87.2 µM

SMILES: CCOP(=O)(Cn1nnc2c(C(N)=O)ncn2c1=O)OCC [VV-001, (8-Carbamoyl-4-oxo-imidazo[5,1-d][1,2,3,5]tetrazin-3-ylmethyl)-phosphonic acid diethyl ester]
- GI50 [2]: 102 µM and 85.6 µM
- activity compared with TMZ, in words ([2]; SNB19M glioma cell line): more active than TMZ
- GI50 [1]: 73.6 µM and 63.4 µM
- activity compared with TMZ, in words ([1]; SNB19V glioma cell line): more active than TMZ
- GI50 [4]: 306 µM and 174 µM

— patent US8450479B2, “3-substituted-4-oxo-3,4-dihydro-imidazo[5,1-d][1,2,3,5-tetrazine-8-carboxylic acid amides and their use” (Pharminox Limited, priority 2007, dated 2013)
